In ChEMBL document CHEMBL1125927, “New isomeric classes of topically active ocular hypotensive carbonic anhydrase inhibitors: 5-substituted thieno[2,3-b]thiophene-2-sulfonamides and 5-substituted thieno[3,2-b]thiophene-2-sulfonamides” (J Med Chem, 1991):
Where “and” joins values, the source holds several entries; their conditions need not be identical. Equal entries are not always repeated.

Tests used:
[1] = target: T1, Carbonic anhydrase 2 (Homo sapiens, UniProt P00918)
Description: In vitro inhibitory activity against human carbonic anhydrase II

[2] = physchem
Description: Dissociation constant (pKa)

[3] = organism: Bos taurus
Description: The binding to bovine iris and ciliary body pigment

[4] = physchem; conditions: octanol/water, pH 7.4
Description: Partition coefficient (logD7.4)

[5] = target: T1, Carbonic anhydrase 2; remark: listed apart in the source
Description: In vitro binding affinity against human carbonic anhydrase II

[6] = target: T1, Carbonic anhydrase 2; remark: listed apart in the source
Description: The compound was tested for in vitro binding affinity against human Carbonic anhydrase II

[7] = target: T1, Carbonic anhydrase 2; remark: listed apart in the source
Description: The compound was tested for in vitro inhibitory activity against human Carbonic anhydrase II

[8] = target: T1, Carbonic anhydrase 2; experiment: The compound was tested for in vitro inhibitory activity against human carbonic anhydrase II; conditions: read-out: I50
[9] = organism: Oryctolagus cuniculus; experiment: Intraocular pressure studies in normotensive albino rabbits was performed; type: functional; further: test concentration or dose not given here
[10] = organism: Oryctolagus cuniculus; experiment: Intraocular pressure studies were performed for the compound and compared with MK-927; type: functional; further: test concentration or dose not given here
[11] = organism: Oryctolagus cuniculus; experiment: Intraocular pressure studies in normotensive pigmented rabbits was performed; type: functional; further: test concentration or dose not given here
[12] = organism: Oryctolagus cuniculus; experiment: Intraocular pressure studies in hypertensive pigmented rabbits was performed; type: functional; further: test concentration or dose not given here
[13] = target: T1, Carbonic anhydrase 2; experiment: The compound was tested for in vitro inhibitory activity against human carbonic anhydrase II.; conditions: read-out: I50

SMILES	IC50 [1]	pKa [2]	Pigment binding [3]	logD [4]	Ki [5]	other results
Cl.NS(=O)(=O)c1cc2cc(CNCC(F)(F)F)sc2s1	2.2 nM	3.75	21.1%	–	–	–
CNCc1cc2sc(S(N)(=O)=O)cc2s1.Cl	3.2 nM	7.65	87.3%	-0.495	11.8 nM	–
COCCNCc1cc2sc(S(N)(=O)=O)cc2s1.Cl	2.8 nM	6.65	81.9%	0.509	3.1 nM	–
CNC(=O)c1cc2cc(S(N)(=O)=O)sc2s1	–	5.2	–	–	–	–
COCCOCCN(CCOC)C(Cc1ccc(F)cc1)c1cc2cc(S(N)(=O)=O)sc2s1 (centres undefined)	1.15 nM	–	–	–	6.54 nM	–
CN(C)CCNC(=O)c1cc2cc(S(N)(=O)=O)sc2s1.Cl	8.8 nM	7.48	97%	-0.398	11 nM	–
Cl.NS(=O)(=O)c1cc2cc(CN(CCO)CCO)sc2s1	2.27 nM	5.5	71.8%	0.23	2.6 nM	–
CS(=O)(=O)CCNCc1cc2cc(S(N)(=O)=O)sc2s1.Cl	–	5.2	56.8%	-0.26	–	Ki [6]: 4.8 nM; IC50 [7]: 4.5 nM
COCCOCCNC(C)c1cc2cc(S(N)(=O)=O)sc2s1.Cl (centres undefined)	–	7.13	71.9%	0.708	3.05 nM	IC50 [8]: 0.7 nM
C[S+]([O-])CCNCc1cc2cc(S(N)(=O)=O)sc2s1.Cl (centres undefined)	8.4 nM	5.58	67.5%	-0.444	5.5 nM	–
COCCN(CCOC)Cc1cc2cc(S(N)(=O)=O)sc2s1.Cl	4.2 nM	5.34	50%	1.58	1.34 nM	IOP [9]: -2.6 mmHg; IOP [10]: -4.6 mmHg; IOP [11]: -4.1 mmHg
NS(=O)(=O)c1cc2cc(CNC(CO)CO)sc2s1	8.4 nM	6.95	–	–	–	–
CC(C)CNCc1cc2cc(S(N)(=O)=O)sc2s1	2.5 nM	7.9	–	0.924	4.4 nM	–
COCCOCCN(CCOC)Cc1cc2cc(S(N)(=O)=O)sc2s1.Cl	2.8 nM	5.55	38.5%	1.14	1.58 nM	IOP [12]: -4.4 mmHg; IOP [9]: -3.3 mmHg; IOP [10]: -5.3 mmHg; IOP [11]: -4.8 mmHg
COCCCNCc1cc2cc(S(N)(=O)=O)sc2s1.Cl	4.9 nM	7.52	85.4%	0.204	–	–
NS(=O)(=O)c1cc2cc(CN3CC[S+]([O-])CC3)sc2s1	4 nM	4.23	–	0.111	3.4 nM	–
CC(C=O)N(Cc1cc2cc(S(N)(=O)=O)sc2s1)C(C)C=O.Cl (centres undefined)	–	5.75	49.7%	1.17	–	Ki [6]: 1.49 nM; IC50 [7]: 2.71 nM
Cl.NS(=O)(=O)c1cc2cc(C(=O)NCCN3CCOCC3)sc2s1	2.9 nM	5.8	91.6%	0.587	6.38 nM	–
NS(=O)(=O)c1cc2cc(C(=O)NCC(O)CO)sc2s1 (centres undefined)	3.2 nM	–	36.7%	-0.347	3.4 nM	–
Cl.NS(=O)(=O)c1cc2cc(CNCCF)sc2s1	2.7 nM	6.4	81.9%	0.702	1.98 nM	–
COCCNCc1cc2cc(S(N)(=O)=O)sc2s1.Cl	5 nM	7	88%	0.324	3.9 nM	–

SMILES	IC50 [1]	pKa [2]	Pigment binding [3]	logD [4]	Ki [5]	other results
CNCc1cc2cc(S(N)(=O)=O)sc2s1.Cl	3 nM	8.02	92.1%	-0.538	–	Ki [6]: 20.9 nM
COCCOCCN(CCOCCOC)Cc1cc2cc(S(N)(=O)=O)sc2s1.Cl	–	5.72	40.3%	0.992	–	Ki [6]: 2.77 nM; IC50 [7]: 3.95 nM
Cl.NS(=O)(=O)c1cc2cc(CN3CCOCC3)sc2s1	3 nM	5.25	42.9%	1.17	1.1 nM	–
Cl.NS(=O)(=O)c1cc2cc(CN3CCSCC3)sc2s1	2.6 nM	5.05	69.9%	1.14	0.44 nM	–
COCCN(CCNC(=O)c1cc2cc(S(N)(=O)=O)sc2s1)CCOC.Cl	2.5 nM	–	87.5%	–	–	–
C[S+]([O-])CCNC(=O)c1cc2cc(S(N)(=O)=O)sc2s1 (centres undefined)	4.6 nM	–	35.6%	-0.155	2.39 nM	–
COCCN(CCOC)Cc1cc2sc(S(N)(=O)=O)cc2s1.Cl	2.5 nM	5.48	41.4%	1.56	0.95 nM	–
NS(=O)(=O)c1cc2cc(CNCCCCO)sc2s1	3 nM	7.7	–	-0.678	–	–
CC(C)(C)NCc1cc2cc(S(N)(=O)=O)sc2s1	–	8.28	–	-0.0757	36.8 nM	IC50 [13]: 10 nM
NS(=O)(=O)c1cc2cc(CNCC3CC3)sc2s1	3.3 nM	7.72	–	0.398	6.7 nM	–
NS(=O)(=O)c1cc2cc(CNCCO)sc2s1	6.3 nM	7.18	–	-0.721	–	–
NCc1cc2cc(S(N)(=O)=O)sc2s1	14 nM	7.3	92%	–	–	–
O=Cc1cc2ccsc2s1	–	–	–	–	–	IOP [9]: -1.3 mmHg; IOP [11]: -1.6 mmHg
NS(=O)(=O)c1cc2cc(C(=O)N(CCO)CCO)sc2s1	6.6 nM	–	–	–	9 nM	–
CC(C)CNCc1cc2sc(S(N)(=O)=O)cc2s1.Cl	2.8 nM	7.6	86.5%	1.24	2.7 nM	–
COC(=O)CSc1sccc1C1OCCO1	–	–	–	–	–	IOP [12]: -2.1 mmHg; IOP [9]: -1.4 mmHg; IOP [10]: -3.9 mmHg and -4.8 mmHg; IOP [11]: -1.6 mmHg
COCCOCCN(CCOC)C(C)c1cc2cc(S(N)(=O)=O)sc2s1 (centres undefined)	0.5 nM	–	–	–	1.54 nM	–
COCCOCCCNCc1cc2cc(S(N)(=O)=O)sc2s1.Cl	6.5 nM	7.4	87.5%	-0.137	–	–
Cl.NS(=O)(=O)c1cc2cc(C(=O)NCCN3CCSCC3)sc2s1	2.9 nM	6.03	96.4%	1.5	4.02 nM	–
OCc1cc2ccsc2s1	–	–	–	–	–	IOP [9]: -3 mmHg
